Source: US12257264B2, “Combination therapy for HIV with adenosine derivative and capsid inhibitors” (Brii Biosciences, Inc., priority 2021, dated 2025)
Values joined by “and” are separate entries in the source; they are usually repeats but may differ in a detail not shown here. Identical values can stand only once.

Columns and labels:
[1] = Plasma stability and conversion to EFdA
Description: The pooled frozen plasma was thawed in a water bath at 37° C. prior to experiment. Plasma was centrifuged at 4000 rpm for 5 min and the clots were removed if any. The pH will be adjusted to 7.4±0.1 if required.
Preparation of test compounds and positive control (propantheline bromide): 1 mM intermediate solution was prepared by diluting 10 μL of the stock solution with 90 μL MeOH; 1 mM intermediate of positive control Propantheline was prepared by diluting 10 μL of the stock solution with 90 μL ultrapure water. 100 μM dosing solution was prepared by diluting 20 μL of the intermediate solution (1 mM) with 180 μL MeOH. 98 μL of blank plasma was spiked with 2 μL of dosing solution (100 μM) to achieve 2 μM of the final concentration in duplicate and samples were incubated at 37° C. in a water bath. At each time point (0, 10, 30, 60 and 120 min), […] of stop solution (0.1% FA in MeOH containing 200 ng/mL tolbutamide and 200 ng/mL Labetalol) was added to precipitate protein and mixed thoroughly. Centrifuged sample plates at 4,000 rpm for 10 min. An aliquot of supernatant (100 μL) was transferred from each well to another plates.
Data analysis: The % remaining of test compound after incubation in plasma was calculated using following equation: % Remaining=100×(PAR at appointed incubation time/PAR at T0 time) where PAR is the peak area ratio of analyte versus internal standard (IS) (LC/MS/MS mobile phase condition: 0.1% Formic Acid in Water/0.1% Formic Acid in Acetonitrile. The appointed incubation time points are TO (0 min), Tn (n=0, 10, 30, 60, 120 min). Liver S9 Stability

[2] = Liver S9 stability and conversion to EFdA; assay type: in vitro ADME, human
Description: Intermediate solution: Dilute 5 μL of compounds or controls (7-ethoxycoumarin) from stock solution (10 mM) with 495 μL MeOH (Conc.: 100 μM, 1% DMSO, 99% MeOH). Stop solution: Cold ACN (including 100 ng/mL Tolbutamide and Labetalol as internal standard). Add 2 μL test compound or control working solution/well to all plates (T0, T5, T10, T20, T30, T60, NCF60) except matrix blank. Add 600 μL/well stop solution (cold in 4° C., including 100 ng/mL Tolbutamide/100 ng/mL Labetalol) to terminate the TO plate, then put it on ice. Dispense 840 μL/well S9 solution to 96-well plate as reservoir according to plate map. Then add 100 μL/well to every plate by Apricot. Incubate S9 solution and compound at 37° C. for about 10 min except NCF60 and TO. After adding S9 solution and 98 μLPB buffer to NCF60, incubate at 37° C. without pre-warming, start timer 1. After 60 min, add 600 μL/well stop solution to terminate the reaction. After pre-warming, dispense 760 μL/well cofactor solution to 96-well plate as reservoir according to plate map. Then add 98 μL/well to every plate by Apricot to start reaction. Incubate at 37° C., start timer 2, Add 600 μL/well stop solution (cold in 4° C., including 100 ng/mL Tolbutamide and Labetalol) to terminate the reaction. Samples are centrifuged at 4000 rpm for 20 min. While centrifuging, load 8×new 96-well plate with 300 μL HPLC water, then transfer 100 μL supernatant, mix with water for LC/MS/MS, transferred to Bioanalytical Services for LC-MS/MS analysis. Use equation of first order kinetics to calculate t1/2 and CL: Equation of first order kinetics: […]

[3] = test system: HIV-1 NL4-3 in MT-4 cells; assay: Two-drug combination antiviral cytoprotection (CPE) assay, MacSynergy II analysis; assay type: cell-based; details: HIV-1 NL4-3 virus in MT4 cells
Description: On the day preceding the assay, the cells were split 1:2 to assure they were in an exponential growth phase at the time of infection.
Combination cytotoxicity was evaluated in parallel on two identical assay plates (i.e., duplicate measurements) that included cell control wells.

[4] = Plasma exposures following oral administration to beagle dogs; details: for Prodrug formula 4-A Concentrations in Dog Plasma / EFdA Concentrations in Dog Plasma / concentration at 0.25 h / concentration at 0.5 h / concentration at 1 h: Prodrug formula 4-A PO 8.25 mg/kg; for concentration at 0.25 h / concentration at 0.5 h / concentration at 1 h: male, beagle, dog, in vivo, po, Prodrug formula 4-A Concentrations in Dog Plasma

Question: Which “Conversion to the target drug (EFdA) in human plasma assay” value [1] does the source give for `C#C[C@]1(COC(=O)OCc2oc(=O)oc2C)O[C@@H](n2cnc3c(N)nc(F)nc32)C[C@@H]1O` [Formula 4-A, ((2R,3S,5R)-5-(6-amino-2-fluoro-9H-purin-9-yl)-2-ethynyl-3-hydroxytetrahydrofuran-2-yl)methyl ((5-methyl-2-oxo-1,3-dioxol-4-yl)methyl) carbonate] here?
Answer: converted to the target drug efficiently

Question: And the “Stability in Human Plasma Formation of EFdA” value ([1]; human plasma)?
Answer: Yes

Question: What about the half-life at 2 µM ([1]; human, plasma, pH 7.4) of the same compound?
Answer: < 50 min

Question: What about the “Conversion to the target drug (EFdA) in liver S9 assay” value [2] of the same compound?
Answer: converted to the target drug efficiently

Question: And the “Stability in Human Liver S9 Formation of EFdA” value ([2]; human liver S9)?
Answer: Yes

Question: And the half-life at 1 µM ([2]; human liver S9, 37° C.)?
Answer: < 50 min

Question: And the “Antiviral activity upon combination with lenacapavir” value [3]?
Answer: synergistic antiviral activity

Question: And the “Prodrug formula 4-A Concentrations in Dog Plasma” value ([4]; 0.250 hrs, individual animals, 8.25 mg/kg)?
Answer: 1.63 ng/mL and 1.09 ng/mL

Question: What about the “Prodrug formula 4-A Concentrations in Dog Plasma” value ([4]; 0.500 hrs, individual animals, 8.25 mg/kg) of the same compound?
Answer: BQL

Question: And the “Prodrug formula 4-A Concentrations in Dog Plasma” value ([4]; 1.00 hrs, individual animals, 8.25 mg/kg)?
Answer: BQL

Question: And the “Prodrug formula 4-A Concentrations in Dog Plasma” value ([4]; 2.00 hrs, individual animals)?
Answer: BQL

Question: And the “Prodrug formula 4-A Concentrations in Dog Plasma” value ([4]; 4.00 hrs, individual animals)?
Answer: BQL

Question: What about the “Prodrug formula 4-A Concentrations in Dog Plasma” value ([4]; 6.00 hrs, individual animals) of the same compound?
Answer: BQL

Question: What about the “Prodrug formula 4-A Concentrations in Dog Plasma” value ([4]; 8.00 hrs, individual animals) of the same compound?
Answer: BQL

Question: What about the “EFdA Concentrations in Dog Plasma” value ([4]; 12.0 hrs, individual animals) of the same compound?
Answer: BQL

Question: And the “Prodrug formula 4-A Concentrations in Dog Plasma” value ([4]; 12.0 hrs, individual animals)?
Answer: BQL

Question: And the “EFdA Concentrations in Dog Plasma” value ([4]; 24.0 hrs, individual animals)?
Answer: BQL

Question: What about the “Prodrug formula 4-A Concentrations in Dog Plasma” value ([4]; 24.0 hrs, individual animals) of the same compound?
Answer: BQL

Question: What about the “EFdA AUC and Cmax compared with a dose-equivalent EFdA” value ([4]; dogs, oral) of the same compound?
Answer: higher AUC and Cmax

Question: And the “Prodrug detected in the systemic circulation” value ([4]; dogs, oral)?
Answer: minimal prodrug detected in the systemic circulation

Question: And the concentration at 0.25 h ([4]; 8.25 mg/kg, 0.250 hrs, Mean)?
Answer: 1.28 ng/mL

Question: What about the concentration at 0.25 h ([4]; 8.25 mg/kg, 0.250 hrs, individual animals) of the same compound?
Answer: 1.13 ng/mL

Question: And the concentration at 0.5 h ([4]; 8.25 mg/kg, 0.500 hrs, Mean)?
Answer: 1.68 ng/mL

Question: What about the concentration at 0.5 h ([4]; 8.25 mg/kg, 0.500 hrs, individual animals) of the same compound?
Answer: 1.68 ng/mL

Question: And the concentration at 1 h ([4]; 8.25 mg/kg, 1.00 hrs, Mean)?
Answer: 1.43 ng/mL

Question: And the concentration at 1 h ([4]; 8.25 mg/kg, 1.00 hrs, individual animals)?
Answer: 1.43 ng/mL
